Source: patent US20130131321A1, “LIGANDS FOR ANTIBODY AND Fc-FUSION PROTEIN PURIFICATION BY AFFINITY CHROMATOGRAPHY” (GRAFFINITY PHARMACEUTICALS GMBH, priority 2010, published 2013)
Where two headings read alike, the source gives them in different places.

What was measured:
[1] = test system: host cell proteins (HCP); test: Microtiter plate chromatography of resins, host cell proteins (bound); type: binding, CHO
Experimental: Flowthrough from protein A chromatography (referred to as host cell proteins) was derived from the supernatant of antibody-producing CHO cell culture in serum-free medium.
(§1) Resins were assessed in packed mode by microtiter plate chromatography. For each column, approximately 30 μl of resin were transferred to a 384-well filter plate and sealed with appropriate top frits.
(§2) Columns were equilibrated with 6.7 column volumes (cv) of phosphate buffered saline (0.15 M NaCl, 20 mM sodium phosphate, pH 7.3; PBS) prior to injection. Either 3.3 cv of whole IgGs dissolved at 0.75 mg ml^−1, Fab or Fc fragments dissolved at 0.25 mg ml^−1 (all three in PBS) or host cell proteins (HCP) were injected onto columns. Antibody fragments of Bevacizumab (Fab and Fc) were prepared by cleavage of whole IgG with papain protease (3) according to the protocol of the manufacturer. […] Volumes transferred were spun through columns at 50 g for 1-2 min. During injection of samples, acceleration was reduced to 10 g and centrifugation time increased to 5-10 min. Effluent fractions were collected in 384-well plates and concentrations of protein analyzed by Bradford assay. Protein masses mi, mft and me (see below) were calculated as the product of fraction volume and measured protein concentration.
(§3) The fraction of ‘bound’ protein was calculated as the difference between the total mass of protein injected mi and the mass of protein detected in the flowthrough mft, divided by the total mass of protein injected.
(§4) the fraction of ‘bound’ protein and the ‘yield’ of protein were calculated for each resin based on data for whole IgG-antibodies. In the case of Bevacizumab fragments and host cell proteins, only the fraction of ‘bound’ protein is given. Selectivity of resins was calculated from data for Bevacizumab Whole IgG and host cell proteins. Due to limited experimental precision, selectivity was truncated beyond values of 10.

[2] = test system: Palivizumab; test: Microtiter plate chromatography of resins, Palivizumab (bound, yield); type: binding, humanized
Experimental: as §1, §2, §3
(§5) The ‘yield’ of protein was calculated as the mass of protein eluted me, divided by the mass of protein injected mi.
as §4

[3] = molecular target: T1, Bevacizumab (Homo sapiens, UniProt P01857); test: Microtiter plate chromatography of resins, Bevacizumab whole IgG (bound, yield, selectivity); type: binding, humanized
T1 construct: fused on or other part: humanised anti-VEGF-A VH domain N-terminal of the gamma-1 constant region (engineered, no UniProt entry)
Experimental: as §1, §2, §3, §5
(§6) The ‘selectivity’ of resins was calculated as the fraction of bound antibody BAb, divided by the fraction of bound host cell proteins BHCP.
as §4

[4] = test system: Bevacizumab; test: as above; type: binding, humanized
Experimental: as §1, §2, §3, §5, §6, §4

[5] = test system: Tocilizumab; test: Microtiter plate chromatography of resins, Tocilizumab (bound, yield); type: binding, humanized
Experimental: as §1, §2, §3, §5, §4

[6] = test system: human poly-IgG (h-poly-IgG); test: Microtiter plate chromatography of resins, human poly-IgG (bound, yield); type: binding
Experimental: as §1, §2, §3, §5, §4

[7] = fraction of whole IgG Bevacizumab bound to resin
[8] = mass of whole IgG Bevacizumab eluted / mass injected
[9] = fraction of injected host cell proteins bound to resin
[10] = fraction of injected protein bound to resin
[11] = fraction of injected whole IgG bound to resin
[12] = mass eluted / mass injected, whole IgG
[13] = bound Bevacizumab whole IgG / bound HCP, truncated beyond values of 10

Compound	HCP Bound (%) ([1]; host cell proteins)	Palivizumab Bound (%) [2]	Palivizumab Yield (%) [2]	Bevacizumab IgG Bound (%) [3, 7]	Bevacizumab IgG Yield (%) [3, 8]	Selectivity [4]	Tocilizumab Bound (%) [5]	Tocilizumab Yield (%) [5]	h-poly-IgG Bound (%) [6]	h-poly-IgG Yield (%) [6]	further results
COc1ccc(NC(=O)c2nnc3ccccn23)cc1C(=O)NCCCN [Ligand L43, 2-Methoxy-5-([1,2,4]triazolo[4,3-a]pyridin-3-ylcarboxamido)benzoic acid (3-amino-1-propyl)amide]	13%	61%	43%	100%	90%	8.0	88%	88%	90%	90%	–
COc1ccc(NC(=O)c2cc(-c3ccco3)[nH]n2)cc1C(=O)NCCCN [Ligand L20, 5-[5-(2-Furyl)pyrazol-3-yl]carboxamido-2-methoxybenzoic acid N-(3-aminopropyl)amide]	47%	97%	84%	100%	96%	2.1	100%	96%	93%	82%	–
COc1ccc(NC(=O)c2nc(-c3ccco3)no2)cc1C(=O)NCCCN [Ligand L55, 5-[3-(2-Furyl)-1,2,4-oxadiazol-5-ylcarboxamido]-2-methoxybenzoic acid (3-amino-1-propyl)amide]	31%	100%	99%	100%	95%	3.3	100%	100%	100%	93%	–
COc1ccc(NC(=O)c2cncc(-c3ccccc3)c2)cc1C(=O)NCCCN [Ligand L11, 2-Methoxy-5-(3-phenylpyridin-5-yl)carboxamidobenzoic acid N-(3-aminopropyl)amide]	56%	78%	75%	95%	94%	1.7	100%	89%	89%	79%	–
COc1ccc(NC(=O)c2cncc(-c3cc4ccccc4s3)c2)cc1C(=O)NCCCN [Ligand L14, 5-[3-(2-Benzothienyl)pyridin-5-yl]carboxamido-2-methoxybenzoic acid N-(3-aminopropyl)amide]	74%	66%	61%	99%	89%	1.3	82%	74%	73%	62%	–
COc1ccc(NC(=O)c2cc(-c3cc(C)sc3C)n(C)n2)cc1C(=O)NCCCN [Ligand L3, 5-[5-(2,5-Dimethyl-3-thienyl)-1-methylpyrazol-3-yl]carboxamido-2-methoxybenzoic acid N-(3-aminopropyl)amide]	62%	100%	93%	100%	89%	1.4	97%	95%	102%	72%	–
Cc1c(NC(=O)c2cc(-c3cccs3)n(C)n2)cccc1C(=O)NCCCN [Ligand L9, 2-Methyl-3-[1-methyl-5-(2-thienyl)pyrazol-3-yl]carboxamidobenzoic acid N-(3-aminopropyl)amide]	58%	41%	33%	100%	91%	1.7	71%	64%	65%	53%	–
COc1ccc(NC(=O)c2cc(-c3csc(C)n3)on2)cc1C(=O)NCCOCCOCC(=O)NCCOCCOCC(=O)NCCCN [Ligand L68, 8-{8-{2-Methoxy-5-[5-(2-methylthiazol-4-yl)isoxazol-3-ylcarboxamido]phenylcarboxamido}-3,6-dioxaoctanoylamido}-3,6-dioxaoctanoic acid (3-amino-1-propyl)amide]	–	–	–	–	–	–	–	–	–	–	HCP Bound (%) [1, 9]: 4%; Palivizumab Bound (%) [2, 10]: 65%; Palivizumab Yield (%) ([2]; mass eluted / mass injected): 65%; Bevacizumab IgG Bound (%) [3, 11]: 100%; Bevacizumab IgG Yield (%) [3, 12]: 100%; Selectivity [4, 13]: 10.0; Tocilizumab Bound (%) [5, 10]: 71%; Tocilizumab Yield (%) ([5]; mass eluted / mass injected): 71%; h-poly-IgG Bound (%) [6, 10]: 65%; h-poly-IgG Yield (%) ([6]; mass eluted / mass injected): 65%
CCOc1ccc(NC(=O)c2cc(-c3ccco3)n(C)n2)cc1C(=O)NCCCN [Ligand L29, 5-[5-(2-Furyl)-1-methylpyrazol-3-yl]carboxamido-2-ethoxybenzoic acid N-(3-aminopropyl)amide]	43%	100%	88%	100%	84%	2.4	100%	96%	95%	70%	–
COc1ccc(NC(=O)c2cn3ccsc3n2)cc1C(=O)NCCOCCOCCNC(=O)NCCOCCOCCN [Ligand L69, N-(8-Amino-3,6-dioxaoctyl)-N′-{8-[5-(imidazo[2,1-b]thiazol-6-ylcarboxamido)-2-methoxyphenylcarboxamido]-3,6-dioxaoctyl}urea]	–	–	–	–	–	–	–	–	–	–	HCP Bound (%) [1, 9]: 2%; Palivizumab Bound (%) [2, 10]: 45%; Palivizumab Yield (%) ([2]; mass eluted / mass injected): 45%; Bevacizumab IgG Bound (%) [3, 11]: 100%; Bevacizumab IgG Yield (%) [3, 12]: 100%; Selectivity [4, 13]: 10.0; Tocilizumab Bound (%) [5, 10]: 78%; Tocilizumab Yield (%) ([5]; mass eluted / mass injected): 73%; h-poly-IgG Bound (%) [6, 10]: 63%; h-poly-IgG Yield (%) ([6]; mass eluted / mass injected): 63%
COc1ccc(NC(=O)c2cn3ccsc3n2)cc1C(=O)NCCCCCC(=O)NCCOCCOCCN [Ligand L76, 6-[5-(Imidazo[2,1-b]thiazol-6-ylcarboxamido)-2-methoxyphenylcarboxamido]hexanoic acid (8-amino-3,6-dioxa-1-octyl)amide]	–	–	–	–	–	–	–	–	–	–	HCP Bound (%) [1, 9]: 9%; Palivizumab Bound (%) [2, 10]: 59%; Palivizumab Yield (%) ([2]; mass eluted / mass injected): 59%; Bevacizumab IgG Bound (%) [3, 11]: 100%; Bevacizumab IgG Yield (%) [3, 12]: 98%; Selectivity [4, 13]: 10.0; Tocilizumab Bound (%) [5, 10]: 93%; Tocilizumab Yield (%) ([5]; mass eluted / mass injected): 89%; h-poly-IgG Bound (%) [6, 10]: 73%; h-poly-IgG Yield (%) ([6]; mass eluted / mass injected): 73%
COc1ccc(NC(=O)c2cc(-c3cccn3C)n(C)n2)cc1C(=O)NCCCN [Ligand L16, 2-Methoxy-5-[5-(1-methyl-2-pyrrolyl)-1-methylpyrazol-3-yl]carboxamidobenzoic acid N-(3-aminopropyl)amide]	51%	100%	90%	100%	93%	2.0	100%	96%	96%	83%	–
COc1ccc(NC(=O)c2cn3cccnc3n2)cc1C(=O)NCCCN [Ligand L63, 5-(Imidazo[1,2-a]pyrimidin-2-ylcarboxamido)-2-methoxybenzoic acid (3-amino-1-propyl)amide]	3%	0%	0%	100%	95%	–	4%	4%	11%	10%	Selectivity ([4]; fraction of bound Bevacizumab whole IgG / fraction of bound HCP, truncated beyond values of 10): 10.0
Cn1nc(C(=O)Nc2nc(C(=O)NCCCN)cs2)cc1-c1cccs1 [Ligand L19, 2-[1-Methyl-5-(2-thienyl)pyrazol-3-yl]carboxamidothiazole-4-carboxylic acid N-(3-aminopropyl)amide]	56%	18%	16%	100%	99%	1.8	47%	48%	49%	48%	–
